By Ki is commonly meant a measure of affinity in units of concentration, obtained from inhibition or displacement. Lower therefore signals higher affinity. What is called pKa is the pH at which an ionisable group is half protonated. Low values mean a stronger acid or weaker base, high ones a weaker acid or stronger base.

This passage reports Ki and pKa results from ChEMBL document CHEMBL1147497, “The inhibition of metallo-beta-lactamase by thioxo-cephalosporin derivatives” (Bioorg Med Chem Lett, 2004).

Structures are written as SMILES.

Data set [1] in a line: Binding affinity against nitrocefin.
The nature of data set [2]: pKa in water at 30 degree C. Type of data set: physicochemical.

`CC1=C(C(=O)O)N2C(=S)[C@@H](NC(=O)Cc3ccccc3)[C@H]2SC1` returned a Ki in data set [1] of 720 µM. Take `CC1=C(C(=O)O)N[C@@H](C2NC(=O)C(c3ccccc3)N=C2S)SC1` (some centres not stated): the pKa in data set [2] came to 10.1.
